{"source": "patent US9504676B2", "about": "“Molecules inhibiting a metabolic pathway involving the Syk protein tyrosine kinase and method for identifying said molecules” (CENTRE NATIONAL DE LA RECHERCHE SCIENTIFIQUE, priority 2008, dated 2016)", "key": {"[1]": {"test_system": "Syk mutants (Arg 68, Glu 121, Glu 155)", "assay": "Binding of G4G11 with Syk mutants in the ADA method", "set-up": "species or system murine", "conditions": "5 μM of C-13", "text": "On the basis of this information and the known 3D structure of the peptide complex formed by the SH2 domains of Syk and ITAM motifs^17, the inventors used computing approaches to locate a putative binding site for C-13. A candidate cavity comprising the residues Ser 9, Gln 43, Phe 51, Ile 66, Glu 67, Arg 68, Glu 69, Leu 70, Asn 71, Gly 72, Thr 73, Tyr 74, Ala 75, Glu 121 and Glu 155 of human Syk protein (see FIG. 8A, SEQ ID No. 1) and situated in the vicinity of the G4G11 epitope was identified (FIG. 1C). A structural analysis specified that the residues Ser 9, Gln 43, Phe 51, Arg 68, Glu 121 and Glu 155 could be involved in the binding of the ligand, and could be mutated without impairing the 3D structure of the protein. To validate the cavity in more detail, these six amino acids were mutated individually and the Syk mutants were subjected to the ADA test.\n• 1) Chemical products and antibodies. […] The binding of G4G11 with Syk was assessed by adding the 9E10 monoclonal antibody conjugated with HRP detecting the amino acid sequence EQKLISEEDLN of human c-myc protein located at the C-terminal end of the scFv fragment. To generate Syk mutants, targeted mutagenesis was used on GST:Syk 6-242 protein and the binding of G4G11 with the mutants was assessed in the presence of 5 μM of C-13. • 3) Cells, culture conditions and functional tests. […]"}, "[2]": {"assay": "Observation of toxicity after administration to animals", "format": "in vivo, BALB/c mice", "text": "The pharmaceutical molecule screening approach described herein represents a generic platform wherein the initial use of antibodies makes it possible to detect the domains of the target molecule having a therapeutic potential, thus facilitating the design of chemical molecules (via in silico and/or in vitro screening) capable acting as functional antibody mimics and as potential protein-protein interaction inhibitors.\nFinally, to extend these observations to mast cell functions in vivo, the inventors tested the effects of C-13 on passive systemic (PSA) and cutaneous anaphylaxis (PCA) induced in BALB/c mice by administering DNP-specific IgE molecules followed by intravenous stimulation with DNP-KLH hapten. […] The intensity of systemic anaphylaxis was determined by measuring both the drop in body temperature and the increase in vascular permeability following antigen administration."}}}
{"compound": "COC(=O)c1ccccc1-c1ccc(/C=C2/SC(=S)N(Cc3ccccc3)C2=O)o1", "note": "[Molecule C-13, methyl 2-{5-[(3-benzyl-4-oxo-2-thioxo-1,3-thiazolidin-5-ylidene)methyl]-2-furyl}benzoate]", "values": [{"measurement": "effect of mutation of Arg 68, Glu 121 and Glu 155 of Syk on inhibition of G4G11 binding", "setting": "[1]", "value": "cancelled the inhibition"}, {"measurement": "signs of toxicity in the animals", "setting": "[2]; after oral administration, prior to antigen stimulation", "value": "no obvious sign of toxicity"}, {"measurement": "apparent toxic effect", "setting": "[2]; oral or local administration, one hour to 12 days", "value": "lack of an apparent toxic effect"}]}
